Reference: patent EP4644377A1, “LIPID COMPOUND FOR GENE DELIVERY AND LIPID NANOPARTICLE COMPRISING SAME” (NANJING CYBERNAX BIOMEDICAL TECHNOLOGY CO., LTD., priority 2022, dated 2024)

Legend:
C57Bl/6 mice = test: Luciferase mRNA delivery in mice, IVIS chemiluminescence; format: in vivo
Protocol: The animal experiments were reviewed and approved by the Ethics Committee of Zhejiang Medical College and the Ethics Committee of Zhejiang University of Technology. 6- to 8-week-old male C57Bl/6 mice were randomly grouped with 3 mice in each group. The mice in each group received a lipid nanoparticle coating mRNA expressing a luciferase via tail vein injection at a dose of 0.25 mg/kg mouse body weight (calculated by the mass of coated mRNA). […] The mRNA delivery effect of the lipid nanoparticle is quantitatively compared through a total chemiluminiscence quantity (Total Flux p/s) of a mouse whole body within unit time (shown in Table 5).
Table 13 and Table 14 show whole body chemiluminescent signals when LNPs (formulation 2) composed of the lipids in some examples deliver Flue mRNA in mice. The delivery dose of Flue mRNA was 0.25 mg/kg. 6 h after LNP injection, 150 mg/kg of D-luciferin was intraperitoneally injected into the mice, and then the whole body chemiluminescent signals were collected in the IVIS imaging system after 10 min. […]

[1] = Particle size detection of LNP (Brookhaven NanoBrook Omni, DLS); format: physicochemical; conditions: LNPs after coating mRNA (luciferase)
Protocol: Step 1. Preparation of a lipid solution and a nucleic acid solution: unless otherwise specified, all aqueous solutions involved in examples were prepared from deionized water without nucleases. An ionizable lipid, a phospholipid (disaturated phosphatidylcholine (DSPC) or dioleoylphosphatidylethanolamine (DOPE)), cholesterol and a PEG lipid (DMG-PEG2000) were mixed in a molar ratio of 50/10/38.5/1.5 (containing DSPC, formulation 1) or 36.5/16/46.5/2.5 (containing DOPE, formulation 2) and dissolved into an ethanol solution. Meanwhile, a nucleic acid (a mass ratio of ionizable lipid/nucleic acid was 10/1) was dissolved into a citrate buffer solution of pH=3, so that a final volume ratio of the ethanol solution to the citrate solution was 1/3.
Step 2. Preparation of LNP by mixing the lipid solution with the nucleic acid solution: the lipid ethanol solution and the nucleic acid aqueous solution that were prepared in Step 1 were respectively put into a sterile syringe and placed in a Precision Nanosystem Ignite instrument, the extrusion flow speeds of the ethanol solution and the water phase solution were respectively set as 3 ml/min and 9 ml/min in instrument program settings. A microfluidic chip was inserted into the instrument and LNP preparation was initiated, and then a solution mixed by the chip was collected.
Step 2.1. Preparation of an LNP solution coating nucleic acid in a porous plate: a solution of an ionizable lipid, a phospholipid (DSPC or DOPE), cholesterol and a PEG lipid (DMG-PEG2000) in ethanol was added into each well of a 96-well deep plate, so that a molar ratio of four component lipids in each well was 50/10/38.5/1.5 (containing DSPC, formulation 1) or 36.5/16/46.5/2.5 (containing DOPE, formulation 2). Then, a citrate buffer solution (pH=3, the mass of nucleic acid added into each well was 1/10 that of the ionizable lipid in this well) that was three times as ethanol in volume and dissolved with a nucleic acid molecule was quickly added into the well plate through a multi-channel pipette or an automatic liquid dispensing system and rapidly mixed, so as to obtain the LNP solution coating nucleic acid.
Step 3. Purification of the LNP solution: the LNP solution collected in Step 2 or Step 2.1 was subjected to dialysis-concentration-filtration operations, so as to obtain a final LNP solution coating nucleic acid for subsequent testing.
The LNP solution coating nucleic acid obtained in Step 3 was diluted so that the final lipid concentration was between 0.01 mg/ml and 0.1 mg/ml. The diluted solution was added into a sample reservoir, and then subjected to particle size detection in a Brookhaven NanoBrook Omni instrument.

[2] = LNPs (formulation 2), Flue mRNA 0.25 mg/kg, tail vein injection, whole body signal 6 h after LNP injection, 10 min after 150 mg/kg D-luciferin i.p.
[3] = LNP formulation 2 (SM102: formulation 1), luciferase mRNA 0.25 mg/kg, tail vein, C57Bl/6 mice, whole body signal 6 h after LNP, 10 min after D-luciferin 150 mg/kg i.p.

SMILES | Chemiluminescent signal (p/s) (C57Bl/6 mice; [2]) | PDI [1] | Particle size [1] [nm·days] | Chemiluminescent signal (p/s) (C57Bl/6 mice; [3])
CCCCCCCCCCCCCC(=O)N(CCCN(C)C)C(C)C(=O)NCCCCCCOC(=O)C(CCCCCC)CCCCCCCC (stereo not shown) [Lipid 1039] | 3.31E+06 | – | – | –
CCCCCCCCC(CCCCCC)C(=O)OCCCCCCC(=O)N(CCCN(C)C)C(C(=O)NCCCCCCCC(=O)OCC(C)CCCCCCC)C(C)(C)C (stereo not shown) [Lipid 445] | 2.15E+09 | 0.24 | 94.7 ± 0.95 | –
CCCCCCCCC(CCCCCCCC)OC(=O)CCCCCCCNC(=O)C(N(CCCN(C)C)C(=O)CCCCCCCCCC(=O)OC(CCCCCC)CCCCCC)C(C)(C)C (stereo not shown) [Lipid 408] | 1.03E+11 | 0.18 | 101.7 ± 5.09 | –
CCCCC/C=C\C/C=C\CCCCCCCC(=O)N(CCN(C)CCO)C(C(=O)NCCCCCCCCCCCCCC)C(C)(C)C (stereo not shown) [Lipid 195] | – | 0.19 | 204.79 ± 3.09 | 1.43E+09
CCCCC/C=C\C/C=C\CCCCCCCC(=O)N(CCCN(C)C)C(C)C(=O)NCCCCCCCC(=O)OC(CCCCCCCC)CCCCCCCC (stereo not shown) [Lipid 949] | 6.88E+05 | 0.19 | 115.8 ± 0.26 | –
CCCCC/C=C\C/C=C\CCCCCCCC(=O)N(CCCN(CC)CC)C(C(=O)NCCCOC(=O)CCCCCCCC)C(C)(C)C (stereo not shown) [Lipid 170] | – | – | – | 5.52E+08
CCCCCCCC/C=C\CCCCCCCC(=O)OCCCNC(=O)C(C(CC)CC)N(CCCN(CC)CC)C(=O)CCCCCCCCCCC (stereo not shown) [Lipid 113] | – | – | – | 3.39E+08
CCCCCCCCC(CC)OC(=O)CCCCCCC(=O)N(CCCN(C)C)C(C(=O)NCCCCCCCC(=O)OC(CCCCCCCC)CCCCCCCC)C(C)(C)C (stereo not shown) [Lipid 402] | 4.20E+10 | 0.25 | 84.3 ± 3.42 | –
CCCCC/C=C\C/C=C\CCCCCCCC(=O)N(CCCN(C)C)C(C(=O)NCCCCCCOC(=O)C(CCCCCC)CCCCCCCC)C(C)(C)C (stereo not shown) [Lipid 285] | – | – | – | 2.91E+10
CCCCCCCCC(=O)OCCCNC(=O)C(N(CCCN(C)C)C(=O)CCCCCCC/C=C\C[C@H](O)CCCCCC)C(C)(C)C (stereo partly shown) [Lipid 166] | – | – | – | 2.98E+09
CCCCCCCCC(CCCCCC)C(=O)OCCCCCCNC(=O)C(N(CCCN(CC)CC)C(=O)CCCCCCC/C=C\C[C@H](O)CCCCCC)C(C)(C)C (stereo partly shown) [Lipid 294] | – | 0.26 | 150.04 ± 0.93 | –
CCCCCCCC/C=C\CCCCCCCCOC(=O)CCC(=O)N(CCCN(CC)CC)C(C(=O)NCCCC(=O)OCCCCCCCC)C(C)(C)C (stereo not shown) [Lipid 226] | – | 0.19 | 207.34 ± 2.23 | 9.30E+09
CCCCC/C=C\C/C=C\CCCCCCCC(=O)N(CCCN(CC)CC)C(C(=O)NCCCCCCCCCCCCCC)C(C)(C)C (stereo not shown) [Lipid 160] | – | 0.23 | 201.12 ± 47.7 | 1.07E+10
CCCCCCCCCCCC(=O)N(CCCN(CC)CC)C(C(=O)NCCCCCCCC(=O)OC(CCCCCCCC)CCCCCCCC)C(C)(C)C (stereo not shown) [Lipid 178] | – | – | – | 9.50E+08
CCCCCCCCCCCCCCNC(=O)C(N(CCN(C)CCO)C(=O)CCCCCCCCCCCCC)C(C)(C)C (stereo not shown) [Lipid 194] | – | – | – | 3.84E+09
CCCCCCCCC(CCCCCC)COC(=O)CCCCCCC(=O)N(CCCN(C)C)C(C(=O)NCCCCCCCC(=O)OC(CC)CCCCCCCC)C(C)(C)C (stereo not shown) [Lipid 431] | 5.11E+10 | 0.26 | 114 ± 2.51 | –
CCCCC/C=C\C/C=C\CCCCCCCC(=O)N(CCCN(C)C)C(C(=O)NCCCCCCCC(=O)OC(CCCCCCCC)CCCCCCCC)C1CCC1 (stereo not shown) [Lipid 937] | 1.01E+08 | – | – | –
CCCCCCCCC(CCCCCC)COC(=O)CCCCCCC(=O)N(CCCN(C)C)C(C(=O)NCCCCCCOC(=O)C(CCCCCC)CCCCCCCC)C(C)(C)C (stereo not shown) [Lipid 436] | – | 0.18 | 92.2 ± 0.47 | –
CCCCCCCCC(CCCCCCCC)OC(=O)CCCCCCCNC(=O)C(N(CCCN(C)C)C(=O)CCCCCCC/C=C\C[C@H](O)CCCCCC)C(C)(C)C (stereo partly shown) [Lipid 176] | – | – | – | 9.19E+08

SMILES | Chemiluminescent signal (p/s) (C57Bl/6 mice; [2]) | PDI [1] | Particle size [1] [nm·days] | Chemiluminescent signal (p/s) (C57Bl/6 mice; [3])
CCCCCCCCCCCCCCNC(=O)C(N(CCCN(CC)CC)C(=O)CCCCCCC/C=C\C[C@H](O)CCCCCC)C(C)(C)C (stereo partly shown) [Lipid 161] | – | 0.27 | 253.06 ± 4.58 | –
CCCCCCCC/C=C\CCCCCCCCNC(=O)C(C1CCCCC1)N(CCN1CCN(C)CC1)C(=O)CCCCCCCCCCC (stereo not shown) [Lipid 60] | – | – | – | 4.10E+07
CCCCCCCC/C=C\CCCCCCCCNC(=O)C(N(CCCN(CC)CC)C(=O)CCCCCCCCCCC)C(C)(C)C (stereo not shown) [Lipid 30] | – | – | – | 1.35E+08
CCCCCCCCCCCCCC(=O)N(CCCN(CC)CC)C(C(=O)NCCCCCCCC(=O)OC(CCCCCCCC)CCCCCCCC)C(C)(C)C (stereo not shown) [Lipid 179] | – | – | – | 2.60E+09
CCCCCCCCCCCCCC(=O)N(CCCN(C)C)C(C(=S)NCCCCCCCC(=O)OC(CCCCCCCC)CCCCCCCC)C(C)(C)C (stereo not shown) [Lipid 317] | – | 0.23 | 162.23 ± 0.89 | –
CCCCCCCCCCCC(=O)N(CCCN(C)C)C(C(=O)NCCCCCCCC(=O)OC(CCCCCCCC)CCCCCCCC)C(C)(C)C (stereo not shown) [Lipid 173] | – | – | – | 5.48E+08
CC/C=C\C/C=C\C/C=C\C/C=C\C/C=C\CCCC(=O)N(CCCN(C)C)C(C(=O)NCCCCCCOC(=O)C(CCCCCC)CCCCCCCC)C(C)(C)C (stereo not shown) [Lipid 287] | – | – | – | 1.23E+10
CCCCCCCCC(CCCCCCCC)OC(=O)CCCCCCCNC(=O)C(N(CCCN(CC)CC)C(=O)CCCCCCC/C=C\C[C@H](O)CCCCCC)C(C)(C)C (stereo partly shown) [Lipid 181] | – | – | – | 3.86E+09
CC/C=C\C/C=C\C/C=C\C/C=C\C/C=C\CCCC(=O)N(CCCN(CC)CC)C(C(=O)NCCCCCCOC(=O)C(CCCCCC)CCCCCCCC)C(C)(C)C (stereo not shown) [Lipid 295] | – | 0.16 | 162.45 ± 2.28 | –
CCCCCCCC/C=C\CCCCCCCCNC(=O)C(N(CCCN(C)C)C(=O)OCCCCCCCCCCCC)C(C)(C)C (stereo not shown) [Lipid 327] | – | 0.17 | 104.99 ± 1.21 | –
CCCCC/C=C\C/C=C\CCCCCCCC(=O)N(CCCN(C)C)C(CC)C(=O)NCCCCCCCC(=O)OC(CCCCCCCC)CCCCCCCC (stereo not shown) [Lipid 950] | 3.41E+07 | – | – | –
CCCCCCCCC(CCCCCC)C(=O)OCCCCCCNC(=O)C(N(CCCN(C)C)C(=O)CCCCCCC/C=C\C[C@H](O)CCCCCC)C(C)(C)C (stereo partly shown) [Lipid 286] | – | – | – | 4.78E+10
CCCCCCCCCCCCCC(=O)N(CCCN(C)C)C(CC)C(=O)NCCCCCCOC(=O)C(CCCCCC)CCCCCCCC (stereo not shown) [Lipid 1041] | 3.31E+06 | – | – | –
CCCCCCCC/C=C\CCCCCCCCNC(=O)C(N(CCCN(C)C)C(=O)NCCCCCCCCCCCC)C(C)(C)C (stereo not shown) [Lipid 326] | – | 0.18 | 111.42 ± 4.09 | –
CCCCC/C=C\C/C=C\CCCCCCCC(=O)N(CCCN(C)C)C(C(=O)NCCCCCCCC(=O)OC(CCCCCCCC)CCCCCCCC)C1CC1 (stereo not shown) [Lipid 936] | – | 0.19 | 160.5 ± 2.71 | –
CCCCCCCCCCCCNC(=O)C(N(CCCN(C)CCO)C(=O)CCCCCCCCCCC)C(C)(C)C (stereo not shown) [Lipid 188] | – | – | – | 1.92E+10
CCCCCCCCCCCCCCNC(=O)C(N(CCCN(CC)CC)C(=O)CCCCCCCCCCC)C(C)(C)C (stereo not shown) [Lipid 158] | – | – | – | 3.83E+08
CCCCC/C=C\C/C=C\CCCCCCCC(=O)N(CCCN(C)C)C(C(=O)NCCCC(=O)OCCCCCCCC/C=C\CCCCCCCC)C(CC)CC (stereo not shown) [Lipid 108] | – | – | – | 4.23E+09
